Laboratory results from patent publication US6960347B2, “Composition based on N-cholesteryloxycarbonyl-4-para-aminophenol and hydroquinone or one of its derivatives” (L'Oreal, priority 2000, dated 2005).

Tested on: fungal tyrosinase
Assay: in vitro inhibition of the activity of fungal tyrosinase (absorbance at 475 nm)
Type: biochemical
Details: for molar concentration for which an inhibition value of 25% is observed: compound dissolved in ethanol, phosphate buffer, L-tyrosine and L-Dopa substrates, OD 475 nm
Protocol: This test involves in measuring the absorbance (optical density OD) at 475 nm as a function of time for the hydroquinone dissolved (at various concentrations) in ethanol in the presence of a phosphate buffer, 1 ml of L-tyrosine at 2.0×10^−3 M in a phosphate buffer, 0.1 ml of L-Dopa at 1.0×10^−4 M in a phosphate buffer and 50 μl of a solution of fungal tyrosinase at 1 g/l in a phosphate buffer, compared with a control consisting of ethanol (solvent) used at the same concentration in the phosphate buffer.
The percentage of inhibition is determined by the following equation: [formula]
The molar concentration of hydroquinone for which an inhibition value of 25% is observed is then determined.
The test described in Example 1 above is used, except that N-ethyloxycarbonyl-4-para-aminophenol was substituted for N-cholesteryloxycarbonyl-4-para-aminophenol.

Row | SMILES | inhibition of tyrosinase (compound alone at C2=6.77×10^−5 M (solubility limit in DMSO)) | molar concentration for which an inhibition value of 25% is observed [µM]
1 | CC(C)CCC[C@@H](C)[C@H]1CC[C@H]2[C@@H]3CC=C4C[C@@H](OC(=O)Nc5ccc(O)cc5)CC[C@]4(C)[C@H]3CC[C@]12C [N-cholesteryloxycarbonyl-4-para-aminophenol] | no inhibition | 
2 | CCOC(=O)Nc1ccc(O)cc1 [N-ethyloxycarbonyl-4-para-aminophenol] |  | 125
3 | Oc1ccc(O)cc1 [hydroquinone] |  | 80
